Reference: patent publication US9351983B2, “Use of glycerophosphoinositols for the treatment of septic shock” (CONSIGLIO NAZIONALE DELLE RICERCHE, priority 2012, dated 2016)

Assays:
[1] = tested on: LPS-stimulated nuclear translocation of NF-κB; assay: Electromobility shift assay of nuclear NF-κB in LPS-stimulated monocytes; type: cell-based, human; conditions: 50 μM, 0.1 μg/ml LPS for 1 h
Protocol: FIG. 7—Glycerophosphoinositols inhibit LPS-stimulated nuclear translocation of NF-κB. Human monocytes purified from the peripheral blood of healthy donors were incubated at 37° C. for 20 min without (−) or with (+) two different concentrations (300 μM and 50 μM) of GroPIns or GroPIns4P, and then for further 1 h in the absence (−) and presence (+) of 0.1 μg/ml LPS from E. coli. At the end of the incubation, the cells were lysed and the nuclear extracts were incubated with radiolabelled oligonucleotide probes that contained the NF-κB binding site. Protein-DNA complexes were separated using 6% non-denaturating acrylamide gels and visualised by autoradiography. The results shown are representative of 4 different experiments performed with cells from different donors.
Cells were harvested by centrifugation at 300×g for 5 min and lysed in ice-cold cell lysis buffer using an Ultraturrax homogeniser (Janke & Kunke, Germany, 4 strokes of 20 s each, at medium speed). The cell nuclei were pelleted by centrifugation (800×g, 5 min, at 4° C.) and recovered. […] After centrifugation (4000×g, for 10 min, at 4° C.), the supernatant was recovered and the protein concentrations in the nuclear extracts were determined using a commercially available protein assay kit (Bio-Rad Laboratories, UK). […]

[2] = tested on: LPS-induced tissue-factor gene expression; assay: Real-time RT-PCR of tissue factor mRNA in LPS-stimulated monocytes; type: cell-based, human; conditions: 300 μM, 0.1 μg/ml LPS for 24 h (chronic)
Protocol: FIG. 3—The glycerophosphoinositols inhibit LPS-induced tissue-factor gene expression. Freshly isolated human monocytes were incubated at 37° C. for 20 min without or with 300 μM GroPIns or GroPIns4P, and for a further 1.5 h or 24 h in the absence and presence of 0.1 μg/ml LPS. At each time point, the total RNA was extracted from cells by the thiocyanate/caesium chloride method and converted to cDNA. Real-time PCR measurements of tissue factor were performed using validated primers. GAPDH served as the house-keeping gene. Each sample was measured in triplicate and the data were calculated with the delta-delta method (2-DDCT) for comparing relative expression data. Monocytes incubated alone for different times were considered the control sample. Measurements of mRNA levels were expressed as fold-increase over control, and are means (±SD) of triplicates from one experiment that is representative of 4 experiments performed with cells from different donors (*p=0.016; **p=0.0052). […]
One μg total RNA (extracted through thiocyanate/caesium chloride method) was converted to cDNA using Moloney murine leukaemia virus reverse transcriptase (Applied Biosystems, Italy). […] Each sample was measured in triplicate and the data were analysed with the SDS 2.0 software (Applied Biosystems, Italy) by the delta-delta method (2-DDCT) for comparing relative expression results. […]

Structure (SMILES)	reduction of NF-κB nuclear translocation [1]	inhibition of LPS-induced tissue factor mRNA levels [2]
O=P(O)(O)OC1[C@@H](O)[C@H](O)C(OP(=O)(O)OCC(O)CO)[C@@H](O)[C@H]1O (stereo partly shown) [GroPIns4P, glycerophosphoinositol 4-phosphate]	not at 50 μM	completely ineffective
O=P(O)(OCC(O)CO)OC1C(O)C(O)C(O)C(O)C1O (stereo not shown) [GroPIns, glycerophosphoinositol]	not at 50 μM	~60%
